A short description of data set [1]: Rat pharmacokinetics experiments. Conditions: for Vd: read-out: Apparent volume of distribution Vd, ss; for AUC(0-t): read-out: Area under the curve AUC0-24 h; for clearance: read-out: Clearance CL; for bioavailability / concentration at 8 h: po; for concentration at 8 h: oral dose 10 mg/kg. It counts as in vivo, Sprague-Dawley rats. As for the experimental part:
Male Spraguee-Dawley rats (body weight: 220 g˜250 g) were purchased from Slac Laboratory Animals (Shanghai). […] Blood samples were taken through the posterior orbital vein and the blood samples were placed in a tube containing EDTA (as an anticoagulant) and stored in a −80° C. environment after centrifugation with a refrigerated centrifuge. Blood sample (at an amount of folds of 25 μL) was taken and cold acetonitrile containing the internal standard (100 μL) was added. Sample was centrifuged for 10 minutes to precipitate the plasma protein. Finally, supernatant (10 μL) was injected into the LC-MS/MS system for analysis.
LC-MS/MS analysis method: All samples were analyzed by LC-MS/MS system of API4000 QTRAP mass spectrometer equipped with LC-20AD and CBM-20A controllers, DGU-20A solvent degasser and SIL-20A autosampler (Japan Shimadzu, Colombia, Md., USA). A Bona Aeger Venusil XBP C18 column (50×2.1 mm; filler 5 micron particle size) was used for HPLC separation. The column temperature was maintained at 40° C. The flow rate was 0.3 mL/min and the total run time was 6 minutes.
For the quantification of MS/MS, the API4000 QTRAP mass spectrometer was operated in an ESI positive mode with multiple reaction monitoring (MRM). All compounds and internal standards were set to be monitored during a residence time of 100 milliseconds. The other MS/MS parameters were set as follows: atomization gas (GS1) at 30 psi, 551b turbine pressure, 4500V ion spray voltage, 500° C. ion source temperature. For the selected ion transitions, each analyte was tested at the optimal sensitivity of the cluster potential (DP) and the collision energy (CE). Finally, the data was collected and processed using AB SCIEX Analysist 1.5.2 data collection and integration software.
Test subjects, Sprague-Dawley rats (body weight from about 220 g to about 250 g), were purchased from Slac Laboratory Animals (Shanghai, China). All compounds tested at 1 mg/mL concentration, either intravenous injected at a tail vein at 1 mL/kg dosage for one group of test subjects or administered orally at a dose of 10 mL/kg in another group of test subjects. Then aliquots of blood samples were collected by retro-orbital venous plexus puncture at time intervals after the injection/administration. The blood samples were kept in tubes containing EDTA, centrifuged and stored at −80° C. before analysis. Blank plasma was collected by the same method before rats were treated with compounds. Plasma samples for analysis were obtained by removing about 25 μL from the saved blood sample; adding cold acetonitrile (about 100 μL) as internal standard; centrifuged for 10 minutes to precipitate plasma proteins; and collect about 10 μL of the upper clear solution for analysis done by an LC-MS/MS system.
All samples were analyzed by an API 4000 QTRAP® LC/MS/MS System equipped with Shimadzu LC-20AD pump, Shimadzu CBM-20A controller, SIL-20A autosampler and DGU-20A degasser (Shimadzu, Columbia, Md., USA). A Venusil XBP C18 HPLC Column (2.1×50 mm, 5 μm) (Bonna-Agela Technologies) was used for HPLC separation at isocratic temperature of 40° C. Flow rate was kept at 0.3 mL/min and the total run time was kept at 6 minutes.
Quantification by MS/MS is done using the above-described API 4000 QTRAP mass spectrometer equipped with multiple reaction monitoring (MRM) and positive electrospray ionization (ESI+) modes. All compounds and internal standard were detected at […] of about 100 milliseconds. Other parameters for MS/MS are shown below: Ion Source Gas 1 (GS1) at 30 psi, turbine pressure at 55 pounds, ion spray voltage at 4500 V, and ion source temperature at 500° C. MRM measurements of the analytes were performed using declustering potential (DP) and […] values optimized for each analyte. Finally, all of the operations, the acquisition and analysis of data were controlled by Analyst (version 1.5.2, AB Sciex, USA).

The target in another data set is T1, CYP2C9 (Homo sapiens, UniProt P11712).
T1 construct: containing HLM (0.2 mg/mL), phosphate buffer (100 mM, pH 7.4); from tissue; host or cells: liver microsomes (HLM)
T1 sequence (P11712 whole entry): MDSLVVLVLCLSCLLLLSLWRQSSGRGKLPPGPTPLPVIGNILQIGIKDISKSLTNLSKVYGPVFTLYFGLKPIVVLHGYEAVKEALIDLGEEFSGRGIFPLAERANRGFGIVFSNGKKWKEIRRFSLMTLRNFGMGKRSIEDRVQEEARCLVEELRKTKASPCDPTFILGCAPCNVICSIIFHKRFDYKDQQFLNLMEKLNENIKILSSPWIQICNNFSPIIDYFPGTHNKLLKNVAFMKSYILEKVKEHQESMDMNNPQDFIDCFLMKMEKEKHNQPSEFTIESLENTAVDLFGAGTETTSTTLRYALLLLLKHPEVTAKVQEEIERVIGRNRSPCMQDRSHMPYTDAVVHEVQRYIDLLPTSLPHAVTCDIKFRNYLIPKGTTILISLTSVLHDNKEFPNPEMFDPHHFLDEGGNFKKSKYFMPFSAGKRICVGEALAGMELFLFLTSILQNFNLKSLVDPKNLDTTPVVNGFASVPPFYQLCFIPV
Nature of the data set: CYP liver enzyme inhibition experiment, CYP-2C9. It counts as in vitro ADME. Conditions: human liver microsomes. As for the experimental part: The five major CYP isozymes and their respective probe substrates were: CYP-1A2 (phenacetin, 30 μM), CYP-2C9 (toluenesulfonylurea, 100 μM), CYP-2C19 40 μM), CYP-2D6 (dextromethorphan, 5 μM) and CYP-3A4 (midazolam, 1 μM). All probes were used close to or below their KMS concentrations. The mixture (200 μL) was incubated in a 37° C. constant temperature water bath, containing HLM (0.2 mg/mL), phosphate buffer (100 mM, pH 7.4), NADPH […], test compound (10 μM) and the respective CYP probe substrate. Before the reaction with NADPH, the mixture was pre-incubated for 10 minutes to undergo inhibitor-enzyme interaction. After a specific period of time (10 minutes for CYP-1A2, 2D6 and 3A4; 30 minutes for CYP-2C9 and 2C19), the reaction was quenched by addition to 100 μL solution of appropriate amount of cold acetonitrile. Reaction system was centrifuged and injected into the LC-MS/MS to quantify the concentration of specific metabolite formed from the substrate and the CYP enzyme. Each test compound was tested at least three times independently.
Five major CYP isozymes and their corresponding substrates are: CYP-1A2 (phenacetin, 30 μM), […], CYP2C19 (S-mephenytoin, 40 μM), CYP2D6 (dextromethorphan, 5 μM), and CYP3A4 (midazolam, 1 μM), respectively. All probe substrates were used at or lower than their KMS concentrations.
A mixture (200 μL) can be incubated at 37° C. This mixture can comprise HLM (0.2 mg/mL), phosphate buffer (100 mM, pH at about 7.4), nicotinamide adenine dinucleotide phosphate (NADPH) […], a testing compound (compound B or compound B1), and the individual substrate for the CYP isozyme tested.
Before the start of the reaction with NADPH, the above mixture can be pre-incubated for about 10 minutes to allow inhibitor-enzyme interactions. Then at specific time points (10 minutes time point for CYP-1A2, 2D6 and 3A4; 30 minutes time point for CYP-2C9 and 2C19), the reaction can be quenched by the addition of about 100 μL cold acetonitrile. The quenched mixture can be centrifuged, and aliquots of the mixture can then be analyzed by LC-MS/MS to quantify the concentrations of specific metabolic products for each CYP isozyme. For each testing compound, at least three independent assays can be completed.
(Liver microsomes are vesicles of endoplasmic reticulum, rich in cytochrome P450 enzymes.)

[2] abbreviates: male, Sprague-Dawley, plasma, intravenous injection, 2 mg/kg.
Setting [3] is: male, Sprague-Dawley, plasma, oral, 10 mg/kg.
[4] abbreviates: male, Sprague-Dawley, plasma, oral, 10 mg/kg, read-out: Maximum plasma concentration Cmax.
Setting [5] is: male, Sprague-Dawley, plasma, oral, 10 mg/kg, read-out: Peak time Tmax.
Setting [6] is: male, Sprague-Dawley, plasma, 10 mg/kg, P.O. 10 mg/kg vs I.V. 2 mg/kg, read-out: F %.
[7] abbreviates: male, Sprague-Dawley, plasma, 10 mg/kg, oral 10 mg/kg vs intravenous 2 mg/kg, read-out: Bioavailability F %.
The mark [8] stands for this setting: male, Sprague-Dawley, plasma, 10 mg/kg, read-out: plasma concentration after 8 hours.
Where [9] appears, read: male, Sprague-Dawley, plasma, 10 mg/kg, read-out: plasma concentration after 8 hours in terms of molecular weight conversion.
The mark [10] stands for this setting: male, Sprague-Dawley, plasma, 10 mg/kg, oral, read-out: bioavailability.
Setting [11] is: pH 7.4, probe tolbutamide (tolbutamide hydroxylation), Table 6, HLM, read-out: CYP-2C9 Inhibition (%).
The mark [12] stands for this setting: pH 7.4, probe toluenesulfonylurea (tolbutamide), 100 µM, at 10 μM, read-out: inhibitory activity against CYP-2C9.
Setting [13] is: pH 7.4, probe toluenesulfonylurea (tolbutamide), 100 µM, at a concentration of 10M, read-out: inhibitory rate to CYP-2C9.
[14] abbreviates: pH 7.4, probe toluenesulfonylurea (tolbutamide), 100 µM, test compound 10 μM, HLM, read-out: CYP-2C9 Inhibitory rate (%).

Read-outs that look alike come from different tables or passages of the source. Some results are limits rather than exact numbers.

As for `Cc1cnc(-c2cc(N3CCc4nc(N5CCC(O)CC5)ncc4C3C)ncc2Cl)c(C)c1` (racemic) [B], the AUC0-24 h in data set [1] (I.V., 2 mg/kg) is 2.905 µg·h/mL; in data set [1] (P.O., 10 mg/kg), 7.685 µg·h/mL. Further, the CL in data set [1] (I.V., 2 mg/kg) was determined as 0.684 L/h/kg. In addition, the Vd in data set [1] (setting [2]) worked out at 3.1 L/kg. The AUC(0-t) in data set [1] (setting [2]) was determined as 2.91 µg·h/mL; in data set [1] (setting [3]) it was 7.69 µg·h/mL. In addition, the clearance (in general, the volume of plasma or blood freed of the substance per unit of time) in data set [1] (setting [2]) amounted to 0.684 L/h/kg. Moreover, in data set [1] (setting [4]), the Cmax was found to be 1.69 µg/mL. Moreover, the Tmax (as a rule, the time from dosing to the highest level) in data set [1] (setting [5]) was 0.5 h. Besides, the bioavailability in data set [1] (setting [6]), in data set [1] (setting [7]) and in data set [1] (setting [10]) was 53% throughout. Besides, the concentration at 8 h was determined as 0.083 µg/mL in data set [1] (setting [8]) and 0.178 µM in data set [1] (setting [9]). The inhibition at 30 min, 10 µM on CYP2C9 (setting [11]) is 52 ± 5.2%; at CYP2C9 (setting [12]) it was ~52%; at CYP2C9 (setting [13]), > 50%; on CYP2C9 (setting [14]), 52 ± 5.2%.
In the case of `Cc1cnc(-c2cc(N3CCc4nc(N5CCC(O)CC5)ncc4[C@H]3C)ncc2Cl)c(C)c1` [Compound B1, (R)-1-(6-(5′-chloro-3,5-dimethyl-[2,4′-bipyridin]-2′-yl)-5-methyl-5,6,7,8-tetrahydropyrido[4,3-d]pyrimidin-2-yl)piperidin-4-ol], the “increase of drug exposure (AUC) over that of A-55” value in data set [1] was found to be 122%. In addition, the AUC0-24 h in data set [1] (I.V., 2 mg/kg) stood at 2.233 µg·h/mL; in data set [1] (P.O., 10 mg/kg), 12.324 µg·h/mL. Moreover, the CL in data set [1] (I.V., 2 mg/kg) was 0.864 L/h/kg. Moreover, the t1/2 in data set [1] (I.V., 2 mg/kg) is 1.7 h. The Cmax came out at 1.52 µg/mL in data set [1] (P.O., 10 mg/kg) and 1.52 µg/mL in data set [1] (setting [4]). Also, the Tmax in data set [1] (P.O., 10 mg/kg) worked out at 1 h; in data set [1] (setting [5]), 1 h. In addition, the Vd in data set [1] (setting [2]) came to 2.2 L/kg. For the same molecule, the AUC(0-t) in data set [1] (setting [2]) came out at 2.23 µg·h/mL; in data set [1] (setting [3]), 12.3 µg·h/mL. Moreover, the clearance in data set [1] (setting [2]) stood at 0.864 L/h/kg. Further, in data set [1] (male, Sprague-Dawley, plasma, intravenous injection, 2 mg/kg, read-out: Half-life t1/2 (converted)), the half-life was 1.7 h. In addition, the bioavailability in data set [1] (setting [6]) is 100%; in data set [1] (setting [7]), 100%; in data set [1] (setting [10]), ~100%. The concentration at 8 h in data set [1] (setting [8]) came out at 0.623 µg/mL; in data set [1] (setting [9]), 1.34 µM. The inhibition at 30 min, 10 µM on CYP2C9 (setting [11]) is 26 ± 6%; at CYP2C9 (setting [12]), ~26%; on CYP2C9 (setting [13]) it was 26%; on CYP2C9 (setting [14]), 26 ± 6%.
